A compilation of properties of binary mixtures (doi:10.1021/je990207b)

Assay: excess molar enthalpy (molar enthalpy of mixing); xn = mol fraction of the nth substance listed
Conditions: 298.15 K, 100 kPa

CCCC(=O)O + CC#N
Conditions	excess molar enthalpy [kcal/mol]
x2 = 0.089	0.0382
x2 = 0.1448	0.0632
x2 = 0.1884	0.0809
x2 = 0.2668	0.108
x2 = 0.4626	0.15
x2 = 0.523	0.155
x2 = 0.5889	0.152
x2 = 0.6417	0.147
x2 = 0.6605	0.143
x2 = 0.686	0.138
x2 = 0.7141	0.131
x2 = 0.7884	0.105
x2 = 0.8201	0.0917
x2 = 0.8728	0.0713
x2 = 0.9067	0.0519
x2 = 0.9377	0.031

CC(C)CC(=O)O + CC#N
Conditions	excess molar enthalpy [kcal/mol]
x2 = 0.0895	0.0454
x2 = 0.1287	0.0645
x2 = 0.1972	0.0978
x2 = 0.3371	0.151
x2 = 0.4026	0.175
x2 = 0.52	0.205
x2 = 0.5902	0.21
x2 = 0.6283	0.207
x2 = 0.7177	0.189
x2 = 0.7835	0.161
x2 = 0.8207	0.136
x2 = 0.8529	0.12
x2 = 0.8744	0.104
x2 = 0.9379	0.0492

CC(=O)O + CC#N
Conditions	excess molar enthalpy [kcal/mol]
x2 = 0.0927	0.023
x2 = 0.1409	0.0359
x2 = 0.2787	0.0588
x2 = 0.381	0.0696
x2 = 0.571	0.0679
x2 = 0.7416	0.0474
x2 = 0.809	0.0379
x2 = 0.8722	0.0268
x2 = 0.915	0.019

CC(C)C(=O)O + CC#N
Conditions	excess molar enthalpy [kcal/mol]
x2 = 0.187	0.116
x2 = 0.2347	0.141
x2 = 0.2938	0.172
x2 = 0.3508	0.192
x2 = 0.3982	0.206
x2 = 0.4547	0.22
x2 = 0.5013	0.222
x2 = 0.5479	0.221
x2 = 0.6046	0.214
x2 = 0.6531	0.201
x2 = 0.6827	0.189
x2 = 0.7273	0.172
x2 = 0.8013	0.138
x2 = 0.9158	0.0654

CCC(=O)O + CC#N
Conditions	excess molar enthalpy [kcal/mol]
x2 = 0.156	0.0696
x2 = 0.2134	0.0896
x2 = 0.278	0.11
x2 = 0.3407	0.127
x2 = 0.399	0.139
x2 = 0.4626	0.148
x2 = 0.5057	0.151
x2 = 0.5993	0.145
x2 = 0.6517	0.136
x2 = 0.7248	0.118
x2 = 0.8046	0.0932

CCCCC(=O)O + CC#N
Conditions	excess molar enthalpy [kcal/mol]
x2 = 0.1197	0.0643
x2 = 0.1899	0.1
x2 = 0.2311	0.12
x2 = 0.2782	0.139
x2 = 0.4131	0.183
x2 = 0.4825	0.199
x2 = 0.5404	0.205
x2 = 0.6211	0.202
x2 = 0.637	0.2
x2 = 0.6655	0.195
x2 = 0.7138	0.182
x2 = 0.7441	0.173
x2 = 0.8076	0.14
x2 = 0.8487	0.115
x2 = 0.9029	0.0725
x2 = 0.9603	0.0285
